Experimental data as given in patent publication US20060069038A1, “Irreversible caspase-3 inhibitors as active site probes” (priority 2003, published 2006).

Key:
[1] = molecular target: T1, caspase-3 (Homo sapiens, UniProt P42574); test: Caspase-3 western blot on camptothecin-treated Jurkat cell extracts; format: cell-based; settings: camptothecin-treated Jurkat cells, FIG. 4
T1 construct: endogenous in cells; host or cells: Jurkat cells, apoptosis induced with camptothecin
T1 sequence (P42574 29-175 limits assumed): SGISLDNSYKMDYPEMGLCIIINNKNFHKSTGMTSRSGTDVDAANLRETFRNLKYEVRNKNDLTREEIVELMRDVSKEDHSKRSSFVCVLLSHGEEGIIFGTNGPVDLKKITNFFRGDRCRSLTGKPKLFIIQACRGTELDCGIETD
T1 sequence (P42574 176-277 limits assumed): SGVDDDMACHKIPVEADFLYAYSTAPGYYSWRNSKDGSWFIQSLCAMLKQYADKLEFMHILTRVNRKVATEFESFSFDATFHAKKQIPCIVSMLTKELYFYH
Method: Jurkat cells (ATCC # TEB-152) were maintained in RPMI1640 supplemented with 10% FBS, 2 mM L-glutamine and antibiotics (penicillin and streptamycin). Apoptosis was induced on cells (1 million cells/ml) that had been starved for 36 hours in CytoSf4 media (Kemp technologies) by addition of camptothecin (Sigma; 3 μg/ml). NT2 cells (ATCC 3813555) were cultured in DMEM+10% FBS+2 mM L-glutamine and antibiotics. Apoptosis induced with camptothecin (5 μg/ml) in culture media.
Denatured protein extracts in 1× Laemli buffer were resolved through a 18% acrylamide gradient SDS-PAGE gel (Invitrogen) at 30 mA in Tris-Glycine buffer. Samples labeled with [^125I]-M808 were migrated until the dye front reached 0.5 cm above the end of the gel, and acrylamide 1 cm above the dye front was cut out to remove all free [^125I]-M808 and reduce background. The gels were fixed for 45 minutes in a 40% Methanol-10% Acetic acid solution and dried for 90 min at 80° C. before exposure on MS Kodak film with MS intensifying screens. For Western blotting, proteins were transferred onto a […] nitrocellulose membrane (Invitrogen) in Tris-Glycine-20% methanol buffer at 40V for 2 hours. Non-specific protein binding was minimized by incubating the membranes for 1 hour in blocking buffer (5% non-fat milk/TBS/0.1% Tween-20). […] Densitometry was performed using a BioRad instrument and QuantityOne software. […]

[2] = test system: active caspases; test: In vivo labeling of active caspases with [125I]-M808 in CLP-operated mice (thymi extracts); design: species or system mouse; settings: i.v. injection in CLP mice, radiolabeled p17 in thymi, FIG. 6
Method: FIG. 6. A-Schematic representation of in vivo labeling of active caspases with [^125I]-M808 in CLP-operated mice. Mice underwent either sham surgery (n=2) or CLP surgery (n=5). [^125I]-M808 was injected intravenously 23.15 h later, and animals were euthanized 24 h post-surgery. B-Caspase-3 western blot of mouse thymi extracts following CLP and administration of [^125I]-M808. Arrows indicate full length pro-caspase-3 (p32) and the processed caspase large subunit (p17). C— in-vivo [^125I]-M808-labeled protein in thymi extracts from septic mice. Arrow points to a radiolabeled caspase large subunit.
Female Sprague-Dawley rats (250-300 g; Charles River, St-Constant, Qc, Canada) and ND4 mice (20-25 g Harlane Sprague-Dawley) were housed in a 12 hour light/dark cycle with free access to food and water. All procedures were carried out under appropriate Animal Care Committee approval in strict accordance to Merck and Co. animal care policies. For Cecal Ligation and Perforation, animals were anesthetized with 2.5% isoflurane and body temperature maintained by use of a thermoregulated heated blanket. A midline incision was made in the abdominal wall of the animal and the cecum exteriorized. The cecum was ligated with a nylon (4-0) suture proximal to the ileocecal valve. In mice, perforation of the cecum was done using a 23 g needle passed through the distal portion of the cecum. […]

## COc1ccc(-c2nc(C)no2)cc1CC(=O)N[C@H](C(=O)N[C@@H](CC(=O)O)C(=O)CSCc1ccccc1)C(C)C [Example M791, (3S)-5-(benzylthio)-3-[(N-{[2-methoxy-5-(3-methyl-1,2,4-oxadiazol-5-yl)phenyl]acetyl}-L-valyl)amino]4-oxopentanoic acid]
[1]
  effect on caspase-3 processing (western blot): prevents the auto-processing of p20 caspase 3 into p19 and p17

## COc1ccc(I)cc1CC(=O)N[C@H](C(=O)NC(CC(=O)O)C(=O)CF)C(C)C (stereo partly drawn) [[^125I]-M808, 5-fluoro-3-({N-[(5-iodo-2-methoxyphenyl)acetyl]-L-valyl}amino)-4-oxopentanoic acid]
[2]
  detection of active caspases in vivo: can detect active caspases in vivo
